For data set [1], the target named is T1, Human FP Receptor (Homo sapiens (Human), UniProt P43088). The experiment in a line: In vitro test of inhibition of human FP receptor activity, variant B-1A (PGF2α-induced calcium flux in FP-expressing CHEM1 cells). The class given is cell-based. The settings on record: calcium flux induced by 3 nM PGF2α, Fluo-8, some mean values from multiple determinations. The text has this: • BSA bovine serum albumin • CRTH2 chemoattractant receptor-homologous molecule expressed on T helper type 2 cells • DMEM Dulbecco's modified Eagle's medium • DMSO dimethyl sulfoxide • DP PGD2 receptor • EC50 half-maximum effective concentration • em. emission • EP PGE2 receptor • ex. excitation • FCS fetal calf serum • FP PGF2α receptor • HEPES 2-[4-(2-hydroxyethyl)piperazin-1-yl]ethanesulfonic acid • IC50 half-maximum inhibitory concentration • IP PGI2 receptor • MES 2-(N-morpholino)ethanesulfonic acid • Pen/Strep penicillin/streptomycin • PGD2 prostaglandin D2 • PGE2 prostaglandin E2 • PGF2α prostaglandin F2α • PGI2 prostaglandin […] • TC tissue culture • TP thromboxane A2 receptor • Tris tris(hydroxymethyl)aminomethane • v/v volume to volume ratio (of a solution) • w/w weight to weight ratio (of a solution) B-1.
In general terms: Calcium assays in cells follow changes in intracellular calcium, usually with a dye or a luminescent sensor.

For data set [2], the target named is T1, Human FP Receptor. The experiment in a line: In vitro test of inhibition of human FP receptor activity, variant B-1B (PGF2α-induced calcium flux in recombinant FP-expressing CHO cells with GCaMP6). It is filed as cell-based. The conditions noted are these: recombinant FP-expressing CHO cells with GCaMP6, calcium flux induced by 3 nM PGF2α, some mean values from multiple determinations. The text has this: 470 nm/em. 525 nm in a fluorescence measuring instrument (FLIPR Tetra®, MolecularDevices) for 120 seconds.

For data set [3] the following is noted: eliminated renally; cited from earlier work.
For data set [4] the following is noted: unstable molecule, rearranged enzymatically in lung, liver and kidney to 15-ketodihydro-PGF2α; cited from earlier work.

In general, IC50 refers to the concentration that inhibits the measured activity by half.

T1 sequence (P43088 whole entry): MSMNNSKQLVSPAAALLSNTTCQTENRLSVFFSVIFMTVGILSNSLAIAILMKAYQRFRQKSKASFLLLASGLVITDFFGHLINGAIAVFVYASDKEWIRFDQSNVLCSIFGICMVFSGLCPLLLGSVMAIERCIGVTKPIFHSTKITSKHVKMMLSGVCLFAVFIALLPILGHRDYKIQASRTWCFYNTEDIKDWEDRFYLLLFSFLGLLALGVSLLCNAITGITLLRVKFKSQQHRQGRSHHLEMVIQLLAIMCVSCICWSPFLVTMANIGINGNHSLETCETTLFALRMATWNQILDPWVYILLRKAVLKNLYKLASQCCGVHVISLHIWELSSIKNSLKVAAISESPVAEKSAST

Turning to `Cc1c(-c2ccccc2)nc2ccc(Br)cc2c1C(=O)Nc1ccc(C(=O)NS(=O)(=O)N(C)C)cc1F` [Example 68, 6-Bromo-N-{4-[(dimethylsulfamoyl)carbamoyl]-2-fluorophenyl}-3-methyl-2-phenylquinoline-4-carboxamide], the values for the concentration for half-maximal inhibition (IC50) in data set [1] and in data set [2] were 318 nM and 182 nM, respectively.

For `Cc1c(-c2ccccc2)nc2ccc(Br)cc2c1C(=O)Nc1ccc(C(=O)O)cc1F` [Example 69, Potassium 4-{[(6-bromo-3-methyl-2-phenylquinolin-4-yl)carbonyl]amino}-3-fluorobenzoate], the IC50 in data set [1] was 104 nM; in data set [2], 59 nM. As to Bleomycin, the half-life entry in data set [3] is “about 3 hours”.

In the case of Prostaglandin F2alpha [PGF2α], the t1/2 in data set [4] was under 1 min.

The values above are taken from US10189788B2, “Substituted N,2-diarylquinoline-4-carboxamides and the use thereof as anti-inflammatory agents” (BAYER PHARMA AKTIENGESELLSCHAFT, priority 2014, dated 2019).
